Where a SMILES comes first, the peptide text is derived from it.
Key:
[1] = molecular target: T1, KRAS-G12V-JAK1 interaction (Homo sapiens, UniProt P01116, G12V); test: TR-FRET assay of the KRAS-G12V/JAK1 interaction in HEK293T lysate; assay type: binding; settings: FIG. 2B, 2D
Procedure: TR-FRET titration assay was performed with HEK293T lysate that had been co-transfected with His-KRAS-G12V and Flag-JAK1. TR-FRET signals were recorded upon treatment with the synthetic peptide 8-mer (RasKi) or the 9-mer control (0 to 50 μM).
Cell lysate from HEK293T cells co-expressing GST-KRAS-G12V and Venus-Flag-JAK1 was treated with the synthetic peptide 8-mer WT ([…], SEQ ID NO: 1) or an 8-mer with K606E mutation. A panel of mutations in 8-mer (5 μM) were tested including M603A ([…], SEQ ID NO: 2).

[2] = molecular target: T1, KRAS-G12V-JAK1 interaction; test: GST-affinity pull-down assay; assay type: binding
[3] = cell permeability of the peptide; assay type: cell-based
[4] = system: IFN-γ stimulated STAT1 transcription; test: STAT1 transcription dual-luciferase assay in HEK293T cells; assay type: cell-based; settings: JAK1 and KRAS-G12V co-expressed with RasKi, 1 ng/ml IFN-γ 18 hours, FIG. 3A
Procedure: STAT1 transcriptional activity was tested in HEK293T cells with a dual-luciferase assay. Luciferase activity was measured upon co-expression of JAK1 and KRAS WT, G12V, or G12V with 8-mer. Fold of Control (FOC) with IFN-γ stimulation was calculated comparing to samples without IFN-γ stimulation. Cells were treated with 1 ng/ml IFN-γ for 18 hours after 24 hours of transfection. Dual-luciferase assays were performed, and relative luciferase activity was measured normalized to Renilla luciferase control.

JAK-STAT pathway [5] = test: Western blot of JAK-STAT pathway signaling in HEK293T cells; assay type: cell-based; settings: HEK293T with KRAS-G12V, FIG. 3B
Procedure: Western Blot was performed to detect the JAK-STAT pathway signaling change in HEK293T cells with overexpressed JAK1 along with KRAS-WT, G12V, or G12V with 8-mer, with or without IFN-γ stimulation (1 ng/ml, 30 minutes). FOC bar graphs show the levels of phosphorylated STAT1 and STAT3 phosphorylation, and the expression of IRF1 and TAP1 after IFN-γ stimulation in comparison to that without stimulation.

JAK-STAT pathway [6] = test: IFN-γ stimulated signaling under endogenous conditions in SW48 KRAS isogenic cell lines (luciferase, Western blot, RT-qPCR); assay type: cell-based; settings: SW48 G12V cells, IFN-γ 1 ng/ml 18 hours, FIG. 3E
Procedure: FOC (Fold of control) of STAT1 transcriptional activity was calculated in SW48 (KRAS isogenic colon cancer) WT and G12V cell lines with IFN-γ stimulation comparing to that without IFN-γ stimulation. RasKi was transduced into G12V cells by lentivirus. Cells were treated with IFN-γ (1 ng/ml) for 18 hours after 24 hours of transduction. Dual-luciferase assays were performed, and relative luciferase activity was measured, normalized to Renilla luciferase control.
Western Blot was performed to detect changes in the JAK-STAT pathway in SW48 cell lines (KRAS isogenic colon cancer with G12V), with or without IFN-γ (1 ng/ml) for 30 minutes. FOC bar graphs show STAT1/3 phosphorylation, IRF1 and TAP1 expression in three groups after IFN-γ stimulation comparing to basal level.
Expression of TAP1, IRF1, PD-L1 mRNA was normalized to GAPDH in SW48 cell lines as detected using RT-qPCR (reverse transcription-quantitative polymerase chain reaction). Cells were treated with IFN-γ (1 ng/ml) for 18 hours.

[7] = system: KRAS isogenic cell lines SW48, LIM1215, H838; test: IFNγ-induced cell death in KRAS-WT and G12V isogenic cells; assay type: cell-based; settings: FIG. 4A; for cell killing without IFNγ: no IFNγ
Text: Bar graphs show the cell death of three pairs of KRAS isogenic cell lines SW48, LIM1215, H838 under different treatment conditions.
Bar graphs show cell death in three KRAS isogenic G12V cell lines in response to IFNγ stimulation and 8-mer peptide, with or without treatment with a JAK1 inhibitor or an IFNγ-receptor antagonist.

[8] = system: KRAS isogenic cell lines SW48, LIM1215, H838; test: NK92 cell-induced death of KRAS-WT and G12V isogenic cells; assay type: cell-based; settings: FIG. 4C
Text: Dose-dependent killing curves of RasKi/8-mer peptide are shown for KRAS WT and G12V isogenic SW48, LIM1215, H838 cell lines with or without NK92 cell stimulation from cell viability readouts.
RasKi dose-dependent cell death curves were established for KRAS isogenic cell lines treated with JAK1 inhibitor or IFNγ-receptor antagonist in response to NK92 cell stimulation. Bar graphs show integrated results from area under curve (AUC) data of each treatment condition.

[9] = system: HLA-A2+ KRAS WT/G12V cancer cells; test: anti-NY-ESO-1 CD8+ T cell-mediated killing, CellTiter Blue viability; assay type: cell-based; settings: under T-cell stimulation; FIG. 5A-5F
Procedure: The lentivirus-transduced HLA-A2+ parental KRAS WT cells, SW48-A2+ and their KRAS G12V knock-in isogenic cells were co-cultured with anti-NY-ESO-1 CD8+ T cells, or treated with RasKi, RasKi-K606E, or in combinations as indicated. The cell viability after treatment was measured using CellTiter Blue™ reagent. The growth inhibition was normalized to the untreated control.
The lentivirus-transduced HLA-A2+ patient derived KRAS WT colon cancer cells (SW48-A2+, LIM1215-A2+ and Caco-2-A2+) and KRASG12V colon cancer cells (SW403-A2+, SW480-A2+ and SW620-A2+) were co-cultured with anti-NY-ESO-1 CD8+ T cells, or treated with RasKi, RasKi-K606E, or in combinations as indicated. The cell viability after treatment was measured using CellTiter Blue™ reagent. The growth inhibition was normalized to the untreated control.
The G12V isogenic cells (SW48G12V-A2+, LIM1215G12V-A2+ and H838G12V-A2+) and were co-cultured with anti-NY-ESO-1 CD8+ T cells and treated with RasKi, or in addition with JAK inhibitor (JAKi) or IFNγ receptor antagonist (IFNγRa) as indicated. The cell viability after treatment was measured using CellTiter Blue™ reagent. The growth inhibition was normalized to the untreated control. Each dot represents an individual cell line.
A gene-engineered CD8+ T cell was produced to specifically target an antigen expressed in an HLA-class I-restricted manner. […]

[10] = molecular target: T1, KRAS-G12V-JAK1 interaction; test: GST-affinity pull-down assay under endogenous conditions; assay type: binding; set-up: endogenous in cells; settings: FIG. 2F

disruption of the JAK1/KRAS-G12V interaction [1]: effectively disrupt
competition with JAK1 full length for binding to KRAS-G12V ([2]; GST pull-down, FIG. 2C, 2E): can compete
binding to KRAS-G12V ([2]; JAK1 truncation mapping): sufficient for KRAS-G12V binding
cell permeability [3]: cell permeable
disruption of the KRAS-G12V/JAK1 interaction at endogenous level [10]: effectively disrupt the interaction
SMILES: CSCC[C@H](N)C(=O)N[C@@H](CC(=O)O)C(=O)N[C@@H](Cc1ccc(O)cc1)C(=O)N[C@@H](CCCCN)C(=O)N[C@@H](CC(=O)O)C(=O)N[C@@H](CC(=O)O)C(=O)N[C@@H](CCC(=O)O)C(=O)NCC(=O)O [RasKi] (H-MDYKDDEG-OH; N-terminus and C-terminus assumed)
STAT1 transcriptional activity upon IFNγ treatment [4]: completely reversed the KRAS-G12V effect
STAT1/3 phosphorylation (JAK-STAT pathway [5]; IFN-γ 1 ng/ml, 30 minutes): increased
expression of IRF1 and TAP1 proteins (JAK-STAT pathway [5]; IFN-γ stimulation): increased
expression of mRNAs for IRF1, TAP1, and PD-L1 (JAK-STAT pathway [6]): increased
cell killing without IFNγ [7]: no difference
cell killing without IFNγ ([7]; listed as 8-mer): No cell killing effect
IFNγ-induced killing effect in cells with KRAS-G12V ([7]; with IFNγ, compared to KRAS-WT cells): drastically increased
killing of cells with WT KRAS together with NK92 cells ([8]; KRAS WT cells, NK92 co-culture): but not cells with WT KRAS
killing of cancer cells with KRAS-G12V together with NK92 cells ([8]; KRAS-G12V cells, NK92 co-culture): synergized with NK92 cells to induce dose-dependent killing
viability of cancer cells, peptide per se ([8]; WT or G12V cells, without NK92 cells): had no effect
T-cell killing in G12V cells [9]: enhanced T-cell killing
